Experimental data taken from ChEMBL document CHEMBL1201862, “PubChem BioAssay data set” (2004).
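Briefly, cells in 96-well plates were exposed to five compound concentrations for 48 h, and endpoints were estimated by linear interpolation. GI50 marks 50% less growth.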 The source made the active and inactive calls. No stated cut-off is given here; in the data, active = GI50 up to about 1.1 µM and inactive = higher.

Legend:
Assay in all cases: growth of human tumour cells (NCI), 48 h
[1] = tested on: T47D
[2] = tested on: K562
[3] = tested on: OVCAR-4
[4] = tested on: SF-268
[5] = tested on: U-251
[6] = tested on: SR
[7] = tested on: Hs-578T
[8] = tested on: COLO 205
[9] = tested on: SK-OV-3
[10] = tested on: M14
[11] = tested on: NCI-H23
[12] = tested on: UACC-62
[13] = tested on: SF-295
[14] = tested on: NCI/ADR-RES
[15] = tested on: 786-0
[16] = tested on: OVCAR-3
[17] = tested on: OVCAR-8
[18] = tested on: RPMI-8226
[19] = tested on: EKVX
[20] = tested on: HOP-62

Measured: GI50

O=C(O)c1ccccc1CC1Cc2ccccc2C1
inactive: [1] > 100 µM | [2] > 100 µM | [3] > 100 µM | [4] > 100 µM | [5] > 100 µM | [6] > 100 µM | [7] > 100 µM | [8] > 100 µM | [9] > 100 µM | [10] > 100 µM | [11] > 100 µM | [12] > 100 µM | [13] > 100 µM | [14] > 100 µM | [15] > 100 µM | [16] > 100 µM | [17] > 100 µM | [18] > 100 µM | [19] > 100 µM | [20] > 100 µM

C=C1C(=O)O[C@@H]2C[C@]3(C)CC[C@]4(C)[C@H](CC[C@@H]5[C@@]6(C)CCC(=O)C(C)(C)[C@@H]6CC[C@]54C)[C@H]3[C@H]12 [OCHRACEOLIDE A]
inactive: [1] 10.6 µM | [2] 4.45 µM | [3] 18.3 µM | [4] 22.2 µM | [5] 19 µM | [6] 14.9 µM | [7] 31.6 µM | [8] 7.19 µM | [9] 24 µM | [10] 14.6 µM | [11] 23.7 µM | [12] 16.9 µM | [13] 17.8 µM | [14] 22.2 µM | [15] 13.7 µM | [16] 17.3 µM | [17] 13.7 µM | [18] 2.1 µM | [19] 19 µM | [20] 23.5 µM

O=C1c2ccccc2C(=O)c2c1ccc1c2OCO1
inactive: [1] > 100 µM | [3] > 100 µM | [4] > 100 µM | [5] > 100 µM | [6] > 100 µM | [7] > 100 µM | [8] > 100 µM | [9] > 100 µM | [10] > 100 µM | [11] > 100 µM | [12] > 100 µM | [13] > 100 µM | [14] > 100 µM | [15] > 100 µM | [16] > 100 µM | [17] > 100 µM | [18] > 100 µM | [19] > 100 µM | [20] > 100 µM

COC(=O)c1cc2c(cc1CC1Cc3cc4c(cc3C1)CCC4)CCC2
inactive: [1] 37.5 µM | [2] 25.8 µM | [3] 84.7 µM | [4] 56.9 µM | [5] 34.9 µM | [6] 19.1 µM | [7] 66.8 µM | [8] 40.5 µM | [9] > 100 µM | [10] 63.8 µM | [11] 44.4 µM | [13] 55 µM | [14] > 100 µM | [15] > 100 µM | [16] 38.6 µM | [17] > 100 µM | [18] 21.8 µM | [19] 52.6 µM | [20] > 100 µM

COc1cc(CSc2ccc(O)cc2)cc(O)c1O
inactive: [1] 28.8 µM | [2] 31.6 µM | [4] 28.8 µM | [5] 28.8 µM | [6] 21.7 µM | [7] 42.1 µM | [8] 23.3 µM | [9] > 10 µM | [10] 20.5 µM | [11] 41.8 µM | [12] 22.8 µM | [13] 23.2 µM | [14] 23.8 µM | [15] 36.2 µM | [16] 26.2 µM | [17] 26.2 µM | [18] 15.7 µM | [19] 85.7 µM | [20] 44.7 µM

Cc1nc2ccc([N+](=O)[O-])cc2c(=O)n1C(=S)Nc1cccc(Cl)c1
inactive: [1] 7.53 µM | [2] 20.7 µM | [3] 19.5 µM | [4] 16.8 µM | [5] 18.5 µM | [6] 31 µM | [7] 21.5 µM | [8] 14 µM | [9] 22.5 µM | [10] 21.9 µM | [11] 13.8 µM | [12] 12.5 µM | [13] 18.3 µM | [14] 19.4 µM | [15] 24.7 µM | [16] 12.3 µM | [18] 4.06 µM | [19] 18.7 µM | [20] 19.2 µM

[N-]=[N+]=NC1CC(n2ccc(N)nc2=O)OC1COP(=O)(O)OP(=O)(O)OP(=O)(O)O (stereo unspecified)
inactive: [1] > 100 µM | [2] > 100 µM | [3] > 100 µM | [4] > 100 µM | [5] > 100 µM | [6] > 100 µM | [7] > 100 µM | [8] > 100 µM | [9] > 100 µM | [10] > 100 µM | [12] > 100 µM | [13] > 100 µM | [14] > 100 µM | [15] > 100 µM | [16] > 100 µM | [17] > 100 µM | [18] > 100 µM | [19] > 100 µM | [20] > 100 µM

CCOC(=O)NC(N(C)C(C(C)C)P(=O)(OCC)OCC)(C(F)(F)F)C(F)(F)F (stereo unspecified)
inactive: [1] > 100 µM | [2] > 100 µM | [3] > 100 µM | [4] > 100 µM | [5] > 100 µM | [6] > 100 µM | [7] > 100 µM | [8] > 100 µM | [10] > 100 µM | [11] > 100 µM | [12] > 100 µM | [13] > 100 µM | [14] > 100 µM | [15] > 100 µM | [16] > 100 µM | [17] > 100 µM | [18] > 100 µM | [19] > 100 µM | [20] > 100 µM

CSc1c(C#N)c(=O)[nH]c2[nH]nc(C)c12
inactive: [1] > 100 µM | [2] > 100 µM | [3] > 100 µM | [4] > 100 µM | [5] > 100 µM | [6] > 100 µM | [7] > 100 µM | [8] > 100 µM | [9] > 100 µM | [10] > 100 µM | [11] > 100 µM | [12] > 100 µM | [14] > 100 µM | [15] > 100 µM | [16] > 100 µM | [17] > 100 µM | [18] > 100 µM | [19] > 100 µM

O=C(Nc1nc(C23CC4CC(CC(C4)C2)C3)cs1)c1cc2cc(Br)cc(Br)c2oc1=O
inactive: [1] > 100 µM | [2] 42.5 µM | [3] 58.1 µM | [4] 37.8 µM | [5] 20.3 µM | [6] 32.3 µM | [7] 27.4 µM | [8] > 100 µM | [9] > 100 µM | [11] > 100 µM | [12] > 100 µM | [13] 40.6 µM | [14] > 100 µM | [15] 32.9 µM | [16] 61.4 µM | [17] 34.4 µM | [18] 67.9 µM | [19] 39.4 µM | [20] 70.8 µM
